Data as given in ChEMBL document CHEMBL2029328, “Identification and structure-activity relationships of a novel series of estrogen receptor ligands based on 7-thiabicyclo[2.2.1]hept-2-ene-7-oxide” (J Med Chem, 2012).

Tests used:
[1] = molecular target: T1, Estrogen receptor (Homo sapiens) (UniProt P03372); experiment: Displacement of [3H]estradiol from human ERalpha after 18 to 24 hrs
T1 sequence (whole entry): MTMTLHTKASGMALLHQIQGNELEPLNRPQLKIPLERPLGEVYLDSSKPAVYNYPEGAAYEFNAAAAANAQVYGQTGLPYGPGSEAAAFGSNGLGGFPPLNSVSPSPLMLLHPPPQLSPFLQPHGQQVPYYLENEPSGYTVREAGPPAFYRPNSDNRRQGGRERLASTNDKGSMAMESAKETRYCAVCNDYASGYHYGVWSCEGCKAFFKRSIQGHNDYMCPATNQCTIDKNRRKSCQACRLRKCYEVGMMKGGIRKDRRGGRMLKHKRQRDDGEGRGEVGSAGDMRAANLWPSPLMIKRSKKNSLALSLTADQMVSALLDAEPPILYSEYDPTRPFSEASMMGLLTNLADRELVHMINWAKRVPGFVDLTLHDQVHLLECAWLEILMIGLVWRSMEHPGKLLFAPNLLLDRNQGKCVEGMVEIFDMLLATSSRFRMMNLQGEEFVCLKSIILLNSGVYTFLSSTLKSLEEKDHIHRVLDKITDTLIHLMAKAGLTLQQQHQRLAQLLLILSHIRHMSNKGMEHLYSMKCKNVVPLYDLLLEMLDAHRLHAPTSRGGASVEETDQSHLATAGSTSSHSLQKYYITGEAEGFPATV

[2] = molecular target: T2, Estrogen receptor beta (Homo sapiens, UniProt Q92731); experiment: Agonist activity at human ERbeta expressed in HepG2 cells up to 10^-5 M after 24 hrs by luciferase reporter gene assay relative to E2; format: functional, cell-based
T2 sequence (Q92731 whole entry): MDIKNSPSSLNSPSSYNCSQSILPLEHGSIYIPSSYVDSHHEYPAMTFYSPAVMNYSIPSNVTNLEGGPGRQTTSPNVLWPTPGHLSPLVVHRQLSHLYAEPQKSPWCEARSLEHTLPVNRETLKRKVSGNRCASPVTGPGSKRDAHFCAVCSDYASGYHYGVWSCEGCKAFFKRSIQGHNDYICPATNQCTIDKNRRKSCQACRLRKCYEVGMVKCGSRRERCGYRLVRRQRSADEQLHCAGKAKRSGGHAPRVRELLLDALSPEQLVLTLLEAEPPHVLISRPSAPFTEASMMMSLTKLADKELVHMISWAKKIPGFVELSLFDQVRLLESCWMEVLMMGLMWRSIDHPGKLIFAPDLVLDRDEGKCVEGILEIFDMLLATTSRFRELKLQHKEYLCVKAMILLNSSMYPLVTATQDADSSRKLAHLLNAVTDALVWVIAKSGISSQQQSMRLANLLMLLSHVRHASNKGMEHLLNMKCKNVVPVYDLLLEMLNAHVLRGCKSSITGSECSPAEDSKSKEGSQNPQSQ

[3] = molecular target: T1, Estrogen receptor (Homo sapiens); experiment: Agonist activity at human ERalpha expressed in HepG2 cells up to 10^-5 M after 24 hrs by luciferase reporter gene assay relative to E2; format: functional, cell-based
[4] = molecular target: T3, Estrogen receptor (Homo sapiens, UniProt P03372)
T3 sequence (P03372 whole entry): T1 sequence (whole entry)
Description: Agonist activity at human ERalpha expressed in HepG2 cells after 24 hrs by luciferase reporter gene assay

[5] = molecular target: T2, Estrogen receptor beta; experiment: Displacement of [3H]estradiol from human ERbeta after 18 to 24 hrs
[6] = molecular target: T2, Estrogen receptor beta
Description: Agonist activity at human ERbeta expressed in HepG2 cells after 24 hrs by luciferase reporter gene assay

SMILES | RBA [1] [%] | Activity [2] [%] | Activity [3] [%] | EC50 [4] [nM] | RBA [5] [%] | EC50 [6] [nM]
O=C1[C@@H]2[C@H](C(=O)N1c1ccccc1)[C@@H]1C(c3ccc(O)cc3)=C(c3ccc(O)cc3)[C@H]2[S+]1[O-] (mixture of isomers) | 0.017 | 24 | 31 | 7100 | 0.013 | –
Cc1cc(O)ccc1C1=C(c2ccc(O)cc2C)[C@H]2[C@H]3C(=O)N(c4ccccc4)C(=O)[C@H]3[C@@H]1[S+]2[O-] (mixture of isomers) | 0.016 | 82 | 65 | 150 | 0.014 | 800
Cc1cc(O)ccc1C1=C(c2ccc(O)cc2C)[C@H]2[C@@H](S(=O)(=O)Oc3cccc4ccccc34)C[C@@H]1[S+]2[O-] (relative stereo) | 0.998 | 83 | 59 | 27 | 0.18 | –
O=S(=O)(Oc1ccc(O)cc1)[C@H]1C[C@H]2C(c3ccccc3)=C(c3ccccc3)[C@@H]1[S+]2[O-] (relative stereo) | 0.005 | 0 | 22 | – | 0.008 | –
Cc1cc(O)ccc1C1=C(c2ccc(O)cc2C)[C@H]2[C@@H](S(=O)(=O)Oc3cccc(Cl)c3)C[C@@H]1[S+]2[O-] (relative stereo) | 1.3 | – | – | – | 0.088 | –
Cc1cc(C2=C(c3ccc(O)c(C)c3)[C@H]3[C@@H](S(=O)(=O)Oc4ccccc4Cl)C[C@@H]2[S+]3[O-])ccc1O (relative stereo) | 1.18 | 0 | 72 | 2000 | 0.022 | –
COc1ccc(OS(=O)(=O)[C@H]2C[C@H]3C(c4ccc(O)cc4)=C(c4ccc(O)cc4)[C@@H]2[S+]3[O-])cc1 (relative stereo) | 0.074 | 19 | 48 | – | 0.08 | –
Cc1ccc(C2=C(c3ccc(C)cc3)[C@H]3[C@@H](S(=O)(=O)Oc4ccc(O)cc4)C[C@@H]2[S+]3[O-])cc1 (relative stereo) | 0.005 | 10 | 24 | 5500 | 0.011 | –
Cc1cc(C2=C(c3ccc(O)c(C)c3)[C@H]3[C@@H](S(=O)(=O)Oc4ccccc4)C[C@@H]2[S+]3[O-])ccc1O (relative stereo) | 3.49 | 3.8 | 65 | 12 | 0.014 | –
COc1ccc(OS(=O)(=O)[C@H]2C[C@H]3C(c4ccc(O)c(C)c4)=C(c4ccc(O)c(C)c4)[C@@H]2[S+]3[O-])cc1 (relative stereo) | 0.31 | 9.8 | 57 | 11000 | 0.021 | –
CCOC(=O)[C@@H]1[C@H](C(=O)OCC)[C@@H]2C(c3ccc(O)cc3)=C(c3ccc(O)cc3)[C@H]1[S+]2[O-] (some centres undefined) | 0.022 | 27 | 55 | – | 0.048 | –
Cc1cc(C2=C(c3ccc(O)c(C)c3)[C@H]3[C@@H](S(=O)(=O)Oc4ccccc4Br)C[C@@H]2[S+]3[O-])ccc1O (relative stereo) | 0.516 | 0 | 51 | 1200 | 0.014 | –
Cc1cc(C2=C(c3ccc(O)c(C)c3)[C@H]3[C@@H](S(=O)(=O)Oc4ccc(O)cc4)C[C@@H]2[S+]3[O-])ccc1O (relative stereo) | 0.109 | – | – | – | 0.009 | –
Cc1cc(O)ccc1C1=C(c2ccc(O)cc2C)[C@H]2[C@@H](S(=O)(=O)Oc3ccccc3Br)C[C@@H]1[S+]2[O-] (relative stereo) | 2.21 | 21 | 67 | 14 | 0.07 | –
Cc1cc(O)ccc1C1=C(c2ccc(O)cc2C)[C@H]2[C@@H](S(=O)(=O)Oc3ccccc3Cl)C[C@@H]1[S+]2[O-] (relative stereo) | 2.49 | 46 | 73 | 2.8 | 0.227 | –
Cc1cc(O)ccc1C1=C(c2ccc(O)cc2C)[C@H]2[C@@H](S(=O)(=O)Oc3ccc(Cl)cc3)C[C@@H]1[S+]2[O-] (relative stereo) | 2.13 | 50 | 67 | 110 | 0.083 | –
O=S(=O)(Oc1ccccc1)[C@H]1C[C@H]2C(c3ccc(O)cc3)=C(c3ccc(O)cc3)[C@@H]1[S+]2[O-] (relative stereo) | 0.956 | 3.4 | 85 | 670 | 0.11 | –
Cc1cc(C2=C(c3ccc(O)c(C)c3)[C@H]3[C@@H](S(=O)(=O)Oc4cccc5ccccc45)C[C@@H]2[S+]3[O-])ccc1O (relative stereo) | 0.236 | 10 | 42 | 770 | 0.019 | –
Cc1cc(C2=C(c3ccc(O)c(C)c3)[C@H]3[C@@H](S(=O)(=O)Oc4ccccc4F)C[C@@H]2[S+]3[O-])ccc1O (relative stereo) | – | 0 | 55 | 1300 | 0.01 | –
Cc1cc(C2=C(c3ccc(O)c(C)c3)[C@H]3[C@H]4C(=O)N(c5ccccc5)C(=O)[C@H]4[C@@H]2[S+]3[O-])ccc1O (mixture of isomers) | 0.009 | 3.4 | 29 | – | 0.007 | –
COc1ccc(OS(=O)(=O)[C@H]2C[C@H]3C(c4ccc(O)cc4C)=C(c4ccc(O)cc4C)[C@@H]2[S+]3[O-])cc1 (relative stereo) | 0.741 | 32 | 76 | 210 | 0.091 | –
Cc1cc(O)ccc1C1=C(c2ccc(O)cc2C)[C@H]2[C@@H](S(=O)(=O)Oc3ccc(O)cc3)C[C@@H]1[S+]2[O-] (relative stereo) | 2.21 | 82 | 58 | 9.2 | 0.812 | –
Cc1cc(O)ccc1C1=C(c2ccc(O)cc2C)[C@H]2[C@@H](S(=O)(=O)Oc3ccccc3F)C[C@@H]1[S+]2[O-] (relative stereo) | 3.53 | 54 | 56 | 2.2 | 0.138 | –
Cc1cc(O)ccc1C1=C(c2ccc(O)cc2C)[C@H]2[C@@H](S(=O)(=O)Oc3ccccc3)C[C@@H]1[S+]2[O-] (relative stereo) | 8.11 | 66 | 62 | 0.14 | 0.348 | –
Cc1cc(O)ccc1C1=C(c2ccc(O)cc2C)[C@H]2[C@@H](S(=O)(=O)Oc3ccc(F)cc3)C[C@@H]1[S+]2[O-] (relative stereo) | 2.18 | 45 | 74 | 200 | 0.08 | –
CCOC(=O)[C@@H]1[C@H](C(=O)OCC)[C@@H]2C(c3ccc(O)c(C)c3)=C(c3ccc(O)c(C)c3)[C@H]1[S+]2[O-] (some centres undefined) | 0.026 | 3.6 | 22 | – | 0.019 | –
Cc1cc(O)ccc1C1=C(c2ccc(O)cc2C)[C@H]2[C@@H](S(=O)(=O)Oc3ccc(Br)cc3)C[C@@H]1[S+]2[O-] (relative stereo) | 3.37 | 100 | 71 | 110 | 0.297 | –
O=S(=O)(Oc1ccc(O)cc1)[C@H]1C[C@H]2C(c3ccc(O)cc3)=C(c3ccc(O)cc3)[C@@H]1[S+]2[O-] (relative stereo) | 0.077 | 10 | 48 | 1100 | 0.071 | –
